“And” between values parts separate entries of the source, which are not always exact repeats. Equal entries are not always repeated.
Tests used:
L1210 = test: antileukemia activity of nitriles vs L1210, Table 8; format: in vivo
From the text: (§1) Table 8 which follows gives anti-tumor data vs L-1210 and P-388 leukemia for these novel nitriles.

P-388 = test: antileukemia activity of nitriles vs P-388, Table 8; format: in vivo
From the text: as §1

L1210 leukemia = test: antitumor activity in L1210 leukemia (percent increase in survival time), Table 2; format: in vivo, mice; details: 8 days
Method: Testing of the compounds of this invention against L-1210 lymphoid leukemia were carried out as follows: L-1210 leukemia was maintained by weekly passage of 10^5 L-1210 cells intraperitoneally into DBA/2 mice. Diluted ascitic fluid, 0.1 ml. (10^5 cells), was administered ip to female B6D2 F1 mice weighing about 20 g. Drugs were administered ip 24 hours after tumor transplantation and injections were continued daily for a total of eight days. A group of control mice receiving only the injection medium were maintained. Table 2 which follows gives the antitumor activity against L-1210 leukemia for certain compounds of this invention. In the table, column 1 gives the name of the compound, column 2 the dose in mg./kg., and column 3 the percent increase in survival time over controls at each dose level.

[1] = free radical scavenging ability (destruction of diphenylpicrylhydrazyl), Table 7; details: 100 μM diphenylpicrylhydrazyl in acetone; test compound 25 μM, 2.5 μM (footnote)
From the text: It is believed that the antineoplastic activity of the compounds of this invention is due in parts to their ability to scavenge free-radicals. Additionally, the compounds of this invention are cancer protective agents and this utility also may be a manifestation of their free-radical scavenging capability. Free-radical scavenging agents may also be useful in detoxifying mammals in whom an excess of free radicals is a cause and/or result of the toxicity. Other possible uses of free radical scavengers are to inhibit protaglandin transformation, leucotriene interconversion and lipogenesis, to act as inflammatory modulators and as food additive or preservatives to prevent lipid oxidation. The free radical scavenging ability of the compounds of the invention was determined by measuring the destruction of the stable free radical, diphenylpicrylhydrazyl, in the presence of the test compound in a manner similar to that reported by […] and Herzmann, Naturwiss, 47, 133-134 (1960). […] The test compound was added at a final concentration of 25 μM and the rate of reduction of absorpotion at […] was observed. Table 7 below gives the free radical scavenging abilities of the compounds of this invention expresses as the initial rate of decrease in optical density units/min.

[2] = system: arachidonic acid induced ear edema; test: arachidonic acid induced ear edema assay, Table 10; format: in vivo, Mice; details: Experiment 1, 2 mg total dose, topical; for Mean Increase in Weight of Inflammed Ear (± S.E.): positive control 17.0 ± 0.6, p = .000
Method: The compounds of this invention because of their ability to scavenge free-radicals in vivo are capable of modulating inflammation as set forth in the following protocol: Mice received the test compound topically to each side of the right ear one hr prior to the inflammatory challenge, at which time they were challenged (except for the negative control) with 10 microliter of a 2 mg/20 microliter solution of arachidonic acid applied to each side of the right ear. One hour post-challenge, the animals were sacrificed, the right ears removed, and an 8 mm disc punched from each. These discs were then weighed. The following table gives the results of this experiment.

Δ^5-lipoxygenase = biological target: T1, Δ^5-lipoxygenase (Rattus norvegicus, UniProt P12527); test: ability to inhibit Δ^5-lipoxygenase; format: biochemical; details: RBL-1 cell supernatant
T1 construct: supernatant fraction of lysed rat basophilic leukemia (RBL-1) cells; endogenous in cells; host or cells: RBL-1 cells, 49,000 g supernatant of homogenate
T1 sequence (P12527 1-673): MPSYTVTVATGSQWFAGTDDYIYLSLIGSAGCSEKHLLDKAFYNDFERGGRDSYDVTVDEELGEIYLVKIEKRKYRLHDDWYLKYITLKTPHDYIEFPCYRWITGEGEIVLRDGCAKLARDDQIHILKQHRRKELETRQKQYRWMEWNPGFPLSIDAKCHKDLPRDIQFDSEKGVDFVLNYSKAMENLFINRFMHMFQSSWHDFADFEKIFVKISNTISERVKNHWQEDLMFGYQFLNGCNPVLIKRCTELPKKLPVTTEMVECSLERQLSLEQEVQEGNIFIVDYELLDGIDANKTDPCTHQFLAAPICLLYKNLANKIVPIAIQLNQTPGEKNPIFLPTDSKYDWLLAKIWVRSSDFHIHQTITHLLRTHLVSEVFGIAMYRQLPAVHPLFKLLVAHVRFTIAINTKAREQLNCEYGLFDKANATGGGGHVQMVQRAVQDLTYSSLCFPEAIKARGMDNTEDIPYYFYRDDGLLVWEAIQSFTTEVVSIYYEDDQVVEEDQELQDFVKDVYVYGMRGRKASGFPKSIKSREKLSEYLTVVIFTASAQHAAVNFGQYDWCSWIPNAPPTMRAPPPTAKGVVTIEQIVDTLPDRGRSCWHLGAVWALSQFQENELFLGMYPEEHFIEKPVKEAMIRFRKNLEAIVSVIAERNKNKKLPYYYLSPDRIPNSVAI
Method: This enzyme is believed to initiate the synthesis of slow reacting substance of […]), an important mediator in the pathogenesis of asthma. Thus, a drug capable of inhibiting this enzyme would also help to prevent asthmatic attacks. In this determination, Δ^5 -lipoxygenase was derived from the supernatant fraction of lysed rat basophilic leukemia (RBL-1) cells. […] The Δ^5 -lipoxygenase was derived from RBL-1 cells which were lysed by homogenization in ice-cold buffer (50 mM Tris-HCl buffer, pH 7.2, containing 1 mM EDTA and 14 uM indomethacin). The homogenate was centrifuged at 4 ° C. at 49,000 g for 20 min and the resulting supernatant fraction was used as the source of Δ^5 -lipoxygenase. The enzyme was assayed at 37° using 6.7 uM (0.39 uCi/ml) [1-14C]arachidonic acid as the substrate in 50 mM Tris-HCl buffer, pH 7.2, containing 1 mM gluthatione, 3 mM CaCl2, 14 uM indomethacin, and 0.25 to 0.50 mM EDTA. […] The effect of compounds on Δ^5 -lipoxygenase activity was determined by preincubating the enzyme for 10 min at 30° in the presence or absence of various concentrations of the drug prior to addition of substrate.

L-1210 Leukemia = test: activity vs L-1210 leukemia (T/C % survival time), Table 3; format: in vivo, mice; details: >130 significant, hydrochloride
From the text: 3,4-Dihydroxybenzamidoxime and 3,4,5-trihydroxybenzamidoxime were subjected to a further series of tests against various transplanted tumors in mice according to the following protocols:
For L-1210 lymphoid leukemia, 20 grams CDF1 or BDF1 mice […] ip with 10^5 leukemia cells. The drug was given one day after tumor inoculation continued for an additional eight days. The mean survival time for the treated animal was compared to that of the control group. In the table, column 1 gives the name of the compound, column 2 the dose levels, and column 3 treated over control percent survival time. (In other words, a figure of 175 indicates a 75% increase in survival time.)

P388 Leukemia = test: activity vs P388 leukemia (T/C % survival time), Table 6; format: in vivo, mice; details: five treatments, >130 significant
Method: The following protocol was used:
CDF1 mice were injected ip with 10^6 cells The drug was administered in the first day after tumor inoculation and continued daily for five treatments. The mean survival time of the treated group compared to the non-treated control group equals T/C×100=T/C percent.

SMILES: N#Cc1cc(O)c(O)c(O)c1 [3,4,5-trihydroxybenzonitrile]
- % Increase in Survival Time (L1210; 118 mg/kg): 34.0%
- % Increase in Survival Time (L1210; 157 mg/kg): 28.0%
- % Increase in Survival Time (P-388; 50 mg/kg): 15% and 20%
- % Increase in Survival Time (P-388; 200 mg/kg): 26% and 39%
- % Increase in Survival Time (P-388; 400 mg/kg): 26%

SMILES: Cl.N=C(N)c1cc(O)c(O)c(O)c1 [3,4,5-trihydroxybenzamidine.HCl, 3,4,5-trihydroxybenzamidine-HCl]
- ILS at 200 mg/kg (L1210 leukemia; Mus musculus, L1210, 192 h, 200 mg/kg ip daily): 43.5%
- ILS at 300 mg/kg (L1210 leukemia; Mus musculus, L1210, 192 h, 300 mg/kg ip daily): 10.2%
- initial rate of decrease in optical density (518 nm) [1]: 4.912 units/min.
- Percent Inhibition vs. positive control [2]: 24%
- Mean Increase in Weight of Inflammed Ear (± S.E.) [2]: 13.0 ± 0.3 mg
- inhibition at 10 µM (Δ^5-lipoxygenase): 75%

SMILES: Cl.NC(=NO)c1cc(O)c(O)c(O)c1 [3,4,5-trihydroxybenzamidoxime.HCl, 3,4,5-Trihydroxybenzamidoxime hydrochloride]
- % Increase in Survival Time (L1210 leukemia; 196 mg/kg ip daily): toxic
- ILS at 59 mg/kg (L1210 leukemia; Mus musculus, L1210, 192 h, 59 mg/kg ip daily): 90%
- ILS at 132 mg/kg (L1210 leukemia; Mus musculus, L1210, 192 h, 132 mg/kg ip daily): 54.5%
- ILS at 220 mg/kg (L1210 leukemia; Mus musculus, L1210, 192 h, 220 mg/kg ip daily): 63.6%
- ILS at 275 mg/kg (L1210 leukemia; Mus musculus, L1210, 192 h, 275 mg/kg ip daily): 30.6%
- t/c % (mean survival time) (L-1210 Leukemia; 25 mg/kg): 136% and 121%
- t/c % (mean survival time) (L-1210 Leukemia; 50 mg/kg): 138% and 137%
- t/c % (mean survival time) (L-1210 Leukemia; 100 mg/kg): 152% and 137%
- t/c % (mean survival time) (L-1210 Leukemia; 200 mg/kg): 212% and 182%
- T/C % (mean survival time) (P388 Leukemia; 50 mg/kg daily, hydrochloride): 142% and 138% and 141%
- T/C % (mean survival time) (P388 Leukemia; 100 mg/kg daily, hydrochloride): 150% and 154% and 138% and 148%
- T/C % (mean survival time) (P388 Leukemia; 200 mg/kg daily, hydrochloride): 155% and 177%
- T/C % (mean survival time) (P388 Leukemia; 300 mg/kg daily): 163%
- T/C % (mean survival time) (P388 Leukemia; 400 mg/kg daily): toxic
- initial rate of decrease in optical density (518 nm) [1]: 0.929 units/min.
- Percent Inhibition vs. positive control [2]: 44%
- Mean Increase in Weight of Inflammed Ear (± S.E.) [2]: 9.5 ± 0.3 mg
- inhibition at 1 µM (Δ^5-lipoxygenase; 1 uM): 24%
- inhibition at 10 µM (Δ^5-lipoxygenase): 90%
